Laboratory results: patent publication US7524860B2, “Antibacterial agents” (Pfizer Inc., priority 2004, dated 2009)
≈ marks a conversion by molar mass, not a printed value.

Each compound was assayed on Neisseria gonorrhoeae, GC525 (NG-2888) (assay: in-vitro antibacterial activity, microbroth dilution MIC susceptibility testing). Settings: Neisseria gonorrhoeae, microbroth dilution in gonococcal broth, 20-24 hours at 35 C, lowest concentration preventing visible growth, read-out: MIC.
Assay type: cell-based
Design: unit: ug/mL
Protocol: The in-vitro antibacterial activity of selected compounds was determined against a stain of Neisseria gonorrhoeae, GC525 (NG-2888), which is described by Rouquette-Loughlin et al, in Journal of Bacteriology, February 2003, p. 1101-1106, at p. 1103. In general, minimum inhibitory concentration (MIC) susceptibility testing followed procedures recommended by the National Committee for Clinical Laboratory Standards (NCCLS^1-2) or followed the descriptions described below:
Neisseria gonorrhoeae strains were grown on Chocolate Agar II plates (BBL—Becton Dickinson Microbiology Systems, Cockeysville, Md.) and incubated at 35° C. in a humidified 5% CO2 incubator (Form a Scientific, Marietta Ohio). For microbroth dilution MIC testing, N. gonorrhoeae were tested in gonococcal broth (GCB):
Gram stains were also utilized. Permanent Stock Culture Collection
Bacterial stock cultures are stored as frozen suspensions at −70 C. N. gonorrhoeae cultures are suspended in inactivated Horse Serum (Colorado Serum Company, Denver, Colo.) containing 7.5% glucose prior to snap freezing in a dry ice/ethanol bath.
Preparation of Standardized Test Inocula and Plate Inoculation
Frozen stock cultures were used as the initial source of organisms for performing microbroth dilution MIC testing. Stock cultures were passed on their respective growth medium at least one growth cycle (18-24 hours) prior to their use. Bacterial culture suspensions were prepared directly from Chocolate Agar II plates into 10 mL cation-adjusted Mueller-Hinton Broth (CAMHB, BBL, # BB215069). Before use, cultures were adjusted to an optical density value of 1.6-2 on a Perkin-Elmer Lambda EZ150 Spectrophotometer (Wellesley, Mass.) set at a wavelength of 600 nm. Random cultures were plated for validation of actual colony counts. The adjusted cultures were diluted 400-fold (0.25 mL inoculum+100 mL GCB) into gonococcal broth producing a starting inoculum of approximately 5×10^5 cfu/mL. These cultures were inoculated into test plates (100 uL/well) using a Biomek® FX workstation (Beckman Coulter Inc., Fullerton, Calif.). The inoculated plates were placed in stacks of no more than 4 and covered with an empty plate. Plates were incubated for 20-24 hours at 35 C in a humidified CO2 incubator.
Test Compound (“Drug”) Preparation
Drug stock solutions (2 mg/mL in DMSO) were prepared on the day of testing. Drugs were weight corrected for assay content where necessary.
Drug Dilution Tray Preparation
Microbroth dilution stock plates were prepared in two dilution series, 64-0.06 ug drug/mL and 1-0.001 ug drug/mL. For the high concentration series, 200 uL of stock solution (2 mg/mL) was added to duplicate rows of a 96-well plate. This was used as the first well in the dilution series. Serial two-fold decremental dilutions were made using a BioMek FX robot (Beckman Coulter Inc., Fullerton, Calif.) with 10 of the remaining 11 wells, each of which contained 100 uL of the appropriate solvent/diluent. Row 12 contained solvent/diluent only and served as the control. For tube one of the low concentration series, 200 uL of a 31.25 ug/mL stock was added to duplicate rows of a 96-well plate. Serial two-fold dilutions were made as described above.
Daughter plates were spotted (3.2 uL/well) from the stock plates listed above using the BioMek FX robot and were inoculated with organism (100 uL/well) as described previously.
After incubation, the degree of growth in each well was read visually with the aid of a Test Reading Mirror (Dynatech Lab 220-16, Dynex Technologies, Chantilly, Va.). 96-well test plates are read in a darkened room with a single light shining from above. The MIC is the lowest concentration of drug that prevents macroscopically visible growth under the conditions of the test. […] If MIC values in duplicate tests differ by 1 well (two-fold), the […] value is reported. If duplicate tests vary by 2 dilutions (four-fold), the middle value is reported.
`CCNC(=O)Nc1nc2cc(-c3ccccc3)cc(C(=O)NCC)n2n1` [Example 71, 2-(3-Ethyl-ureido)-7-phenyl-[1,2,4]triazolo[1,5-a]pyridine-5-carboxylic acid ethylamide] was tested, and the MIC was 4 µg/mL (≈ 11.4 µM). In the case of `CCNC(=O)Nc1nc2cc(-c3ccccc3F)cc(C(=O)NCC)n2n1` [Example 72, 2-(3-Ethyl-ureido)-7-(2-fluoro-phenyl)-[1,2,4]triazolo[1,5-a]pyridine-5-carboxylic acid ethylamide], the MIC is reported as 4 µg/mL (≈ 10.8 µM). `CCNC(=O)Nc1nc2cc(-c3ccccc3C)cc(C(=O)NCC)n2n1` [Example 73, 2-(3-Ethyl-ureido)-7-o-tolyl-[1,2,4]triazolo[1,5-a]pyridine-5-carboxylic acid ethylamide] showed an MIC of 16 µg/mL (≈ 43.7 µM). In the case of `CCNC(=O)Nc1nc2cc(-c3cccnc3)cc(C(=O)NC3CCC3)n2n1` [Example 75, 2-(3-Ethyl-ureido)-7-pyridin-3-yl-[1,2,4]triazolo[1,5-a]pyridine-5-carboxylic acid cyclobutylamide], the MIC is reported as 2 µg/mL (≈ 5.27 µM). Work on `CCNC(=O)Nc1nc2cc(-c3cccnc3)cc(C(=O)N(C)Cc3cc(C)no3)n2n1` [Example 76, 2-(3-Ethyl-ureido)-7-pyridin-3-yl-[1,2,4]triazolo[1,5-a]pyridine-5-carboxylic acidmethyl-(3-methyl-isoxazol-5-yl-methyl)-amide] yielded an MIC of 8 µg/mL (≈ 18.4 µM). With `CCNC(=O)Nc1nc2cc(-c3cccnc3)cc(C(=O)N3CCCC3C)n2n1` (centres unmarked) [Example 77, 1-Ethyl-3-[5-(2-methyl-pyrrolidine-1-carbonyl)-7-pyridin-3-yl-[1,2,4]triazolo[1,5-a]pyridin-2-yl]-urea] the MIC was 1 µg/mL (≈ 2.54 µM). `CCNC(=O)Nc1nc2cc(-c3cccc4ncccc34)cc(C(=O)NCC)n2n1` [Example 78, 2-(3-Ethyl-ureido)-7-quinolin-5-yl-[1,2,4]triazolo[1,5-a]pyridine-5-carboxylic acid ethylamide] gave an MIC of 8 µg/mL (≈ 19.8 µM). Work on `CCNC(=O)Nc1nc2cc(-c3ccc(OC(C)C)cc3)cc(C(=O)NCC)n2n1` [Example 80, 2-(3-Ethyl-ureido)-7-(4-isopropoxy-phenyl)-[1,2,4]triazolo[1,5-a]pyridine-5-carboxylic acid ethylamide] yielded an MIC greater than 64 µg/mL. With `CCNC(=O)Nc1nc2cc(-c3cccc(C#N)c3)cc(C(=O)NCC)n2n1` [Example 81, 7-(3-Cyano-phenyl)-2-(3-ethyl-ureido)-[1,2,4]triazolo[1,5-a]pyridine-5-carboxylic acid ethylamide] the MIC was 2 µg/mL (≈ 5.3 µM). In the case of `CCNC(=O)Nc1nc2cc(-c3ccccc3C(F)(F)F)cc(C(=O)NCC)n2n1` [Example 82, 2-(3-Ethyl-ureido)-7-(2-trifluoromethyl-phenyl)-[1,2,4]triazolo[1,5-a]pyridine-5-carboxylic acid ethylamide], the MIC is reported as greater than 64 µg/mL. `CCNC(=O)Nc1nc2cc(-c3cccnc3)cc(C(=O)N(C)C(C)c3ccncc3)n2n1` (centres unmarked) [Example 86, 2-(3-Ethyl-ureido)-7-pyridin-3-yl-[1,2,4]triazolo[1,5-a]pyridine-5-carboxylic acid methyl-(1-pyridin-4-yl-ethyl)-amide] showed an MIC of 16 µg/mL (≈ 36 µM). In the case of `CCNC(=O)Nc1nc2cc(-c3cccnc3)cc(C(=O)NCc3cnccc3C(F)(F)F)n2n1` [Example 87, 2-(3-Ethyl-ureido)-7-pyridin-3-yl-[1,2,4]triazolo[1,5-a]pyridine-5-carboxylic acid(4-trifluoromethyl-pyridin-3-ylmethyl)-amide], the MIC is reported as 8 µg/mL (≈ 16.5 µM). Compound `CCNC(=O)Nc1nc2cc(-c3cccnc3)cc(C(=O)N(CC)Cc3ccncc3)n2n1` [Example 88, 2-(3-Ethyl-ureido)-7-pyridin-3-yl-[1,2,4]triazolo[1,5-a]pyridine-5-carboxylic acidethyl-pyridin-4-ylmethyl-amide] has an MIC of 8 µg/mL (≈ 18 µM). With `CCNC(=O)Nc1nc2cc(-c3cccnc3)cc(C(=O)N(C)Cc3ncccc3C)n2n1` [Example 89, 2-(3-Ethyl-ureido)-7-pyridin-3-yl-[1,2,4]triazolo[1,5-a]pyridine-5-carboxylic acid methyl-(3-methyl-pyridin-2-yl-methyl)-amide] the MIC was 8 µg/mL (≈ 18 µM). Compound `CCNC(=O)Nc1nc2cc(-c3cccnc3)cc(C(=O)N(C)C(C)c3ccccn3)n2n1` (centres unmarked) [Example 90, 2-(3-Ethyl-ureido)-7-pyridin-3-yl-[1,2,4]triazolo[1,5-a]pyridine-5-carboxylic acidmethyl-(1-pyridin-2-yl-ethyl)-amide] has an MIC greater than 64 µg/mL. In the case of `CCNC(=O)Nc1nc2cc(-c3cccnc3)cc(C(=O)NCc3cccnc3)n2n1` [Example 91, 2-(3-Ethyl-ureido)-7-pyridin-3-yl-[1,2,4]triazolo[1,5-a]pyridine-5-carboxylic acid(pyridin-3-ylmethyl)-amide], the MIC is reported as 16 µg/mL (≈ 38.4 µM). Work on `CCNC(=O)Nc1nc2cc(-c3cccnc3)cc(C(=O)N(Cc3ccncc3)CC3CCCO3)n2n1` (centres unmarked) [Example 92, 2-(3-Ethyl-ureido)-7-pyridin-3-yl-[1,2,4]triazolo[1,5-a]pyridine-5-carboxylic acidpyridin-4-ylmethyl-(tetrahydro-furan-2-ylmethyl)-amide] yielded an MIC of 8 µg/mL (≈ 16 µM). In the case of `CCNC(=O)Nc1nc2cc(-c3cccnc3)cc(C(=O)NC(C)c3ccncc3)n2n1` (centres unmarked) [Example 93, 2-(3-Ethyl-ureido)-7-pyridin-3-yl-[1,2,4]triazolo[1,5-a]pyridine-5-carboxylic acid (1-pyridin-4-yl-ethyl)-amide], the MIC is reported as 2 µg/mL (≈ 4.65 µM). `CCNC(=O)Nc1nc2cc(-c3ccncc3Cl)cc(C(=O)NCC)n2n1` [Example 95, 7-(3-Chloro-pyridin-4-yl)-2-(3-ethyl-ureido)-[1,2,4]triazolo[1,5-a]pyridine-5-carboxylic acid ethylamide] showed an MIC of 32 µg/mL (≈ 82.5 µM). `CCNC(=O)Nc1nc2cc(-c3ccc(OC)nc3)cc(C(=O)NCC)n2n1` [Example 96, 2-(3-Ethyl-ureido)-7-(6-methoxy-pyridin-3-yl)-[1,2,4]triazolo[1,5-a]pyridine-5-carboxylic acidethylamide] showed an MIC of 2 µg/mL (≈ 5.22 µM). `CCNC(=O)Nc1nc2cc(-c3cnc(OC)nc3OC)cc(C(=O)NCC)n2n1` [Example 98, 7-(2,4-Dimethoxy-pyrimidin-5-yl)-2-(3-ethyl-ureido)-[1,2,4]triazolo[1,5-a]pyridine-5-carboxylic acid ethylamide] was tested, and the MIC was 2 µg/mL (≈ 4.83 µM). Compound `CCNC(=O)Nc1nc2cc(-c3cccc(C(F)(F)F)c3)cc(C(=O)NCC)n2n1` [Example 99, 2-(3-Ethyl-ureido)-7-(3-trifluoromethyl-phenyl)-[1,2,4]triazolo[1,5-a]pyridine-5-carboxylic acid ethylamide] has an MIC of 8 µg/mL (≈ 19 µM). With `CCNC(=O)Nc1nc2cc(-c3ccc(OC)cc3OC)cc(C(=O)NCC)n2n1` [Example 102, 7-(2,4-Dimethoxy-phenyl)-2-(3-ethyl-ureido)-[1,2,4]triazolo[1,5-a]pyridine-5-carboxylic acid ethylamide] the MIC was greater than 64 µg/mL. With `CCNC(=O)Nc1nc2cc(-c3cc(C)c(OC)c(C)c3)cc(C(=O)NCC)n2n1` [Example 103, 2-(3-Ethyl-ureido)-7-(4-methoxy-3,5-dimethyl-phenyl)-[1,2,4]triazolo[1,5-a]pyridine-5-carboxylic acid ethylamide] the MIC was greater than 64 µg/mL. Compound `CCNC(=O)Nc1nc2cc(-c3cccnc3)cc(C(=O)NCCN(C)C)n2n1` [Example 105, 2-(3-Ethyl-ureido)-7-pyridin-3-yl-[1,2,4]triazolo[1,5-a]pyridine-5-carboxylic acid (2-dimethylamino-ethyl)-amide] has an MIC of 16 µg/mL (≈ 40.4 µM).

Same assay, conditions: microbroth dilution in gonococcal broth, 20-24 hours at 35 C, lowest concentration preventing visible growth
In the case of `CCNC(=O)Nc1nc2cc(-c3cccnc3)cc(C(=O)N(CC)CC)n2n1` [Example 104, 2-(3-Ethyl-ureido)-7-pyridin-3-yl-[1,2,4]triazolo[1,5-a]pyridine-5-carboxylic acid diethylamide], the MIC is reported as 64.0 µg/mL (≈ 168 µM).
